What all share (format): cell-based
Assay [1] has as its target T1, 5-HT2C (Homo sapiens, UniProt P28335).
T1 sequence (P28335 33-458): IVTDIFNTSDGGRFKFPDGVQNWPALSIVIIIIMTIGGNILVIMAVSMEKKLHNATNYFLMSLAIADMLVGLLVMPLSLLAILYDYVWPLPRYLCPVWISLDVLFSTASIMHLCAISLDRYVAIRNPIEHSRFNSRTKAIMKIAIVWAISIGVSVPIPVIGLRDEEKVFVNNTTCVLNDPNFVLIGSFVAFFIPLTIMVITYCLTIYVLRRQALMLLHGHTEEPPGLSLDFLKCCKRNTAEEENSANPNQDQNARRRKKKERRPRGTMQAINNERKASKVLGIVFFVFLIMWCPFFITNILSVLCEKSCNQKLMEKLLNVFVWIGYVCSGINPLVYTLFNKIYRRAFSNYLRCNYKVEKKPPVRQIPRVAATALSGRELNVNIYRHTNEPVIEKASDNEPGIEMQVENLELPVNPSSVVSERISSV
Briefly: 5-HT2C Gq signaling bias compared to β-arrestin signaling. Details: expressed in transfected cells; host or cells: HEK293T (Gq arm; β-arrestin arm not described). Conditions: primary 5-HT2C signaling via Gq compared to β-arrestin. The source says: To measure 5-HT2 receptor-mediated Gq activation via Gq/y1 dissociation as measured by Bioluminescence Resonance Energy Transfer (BRET) (McCorvy J D, Wacker D, Wang S, Agegnehu B, Liu J, Lansu K, Tribo AR, Olsen RHJ, Che T, Jin J, Roth BL. Structural determinants of 5-HT2B receptor activation and biased agonism. Nat Struct Mo/Biol. 2018; 25(9): 787-96), HEK293T cells were sub-cultured in Dulbecco's Modified Eagle Medium (DMEM) supplemented with 10% dialyzed fetal bovine serum (FBS) and were co-transfected in a 1:1:1:1 ratio with Rluc8-fused human Gaq (Gaq-Rluc8), a GFP2-fused to the C-terminus of human Gy1(Gy1-GFP2), human GI31, and 5-HT2 receptor using TransiT-2020. After at least 18-24 hours, transfected cells were plated in poly-lysine coated 96-well white clear bottom cell culture plates in DMEM containing 1% dialyzed FBS at a density of 25,000-40,000 cells in 200 μL per well and incubated overnight. The following day, medium was decanted, and cells were washed with 60 μL of drug buffer (1×HBSS, 20 mM HEPES, pH 7.4), then 60 μL of drug buffer was added per well. Cells were pre-incubated at in a humidified atmosphere at 37° C. before receiving drug stimulation. […] Substrate addition occurred 15 minutes before reading and utilized 10 μL of the Rluc substrate coelenterazine 400a for Gq dissociation BRET^2 (Prolume/Nanolight, 5 μM final concentration). Plates were read for luminescence at 400 nm and fluorescent GFP2 emission at 510 nm at 1 second per well using a Mithras LB940 multimode microplate reader (e.g. one provided by Berthold). The BRET ratios of fluorescence/luminescence were calculated per well and were plotted as a function of drug concentration using Graphpad Prism 8 (Graphpad Software Inc., San Diego, CA). Data were normalized to % 5-HT stimulation and analyzed using nonlinear regression “log(agonist) vs. response” to yield Emax and EC50 parameter estimates. […]

The target of assay [2] is T1, 5-HT2C. As to the kind of experiment: 5-HT2 receptor-mediated Gq activation via Gq/γ1 dissociation BRET. Details: expressed in transfected cells; host or cells: HEK293T. The source says: (§1) To measure 5-HT2 receptor-mediated Gq activation via Gq/y1 dissociation as measured by Bioluminescence Resonance Energy Transfer (BRET) (McCorvy J D, Wacker D, Wang S, Agegnehu B, Liu J, Lansu K, Tribo AR, Olsen RHJ, Che T, Jin J, Roth BL. Structural determinants of 5-HT2B receptor activation and biased agonism. Nat Struct Mo/Biol. 2018; 25(9): 787-96), HEK293T cells were sub-cultured in Dulbecco's Modified Eagle Medium (DMEM) supplemented with 10% dialyzed fetal bovine serum (FBS) and were co-transfected in a 1:1:1:1 ratio with Rluc8-fused human Gaq (Gaq-Rluc8), a GFP2-fused to the C-terminus of human Gy1(Gy1-GFP2), human GI31, and 5-HT2 receptor using TransiT-2020. After at least 18-24 hours, transfected cells were plated in poly-lysine coated 96-well white clear bottom cell culture plates in DMEM containing 1% dialyzed FBS at a density of 25,000-40,000 cells in 200 μL per well and incubated overnight. The following day, medium was decanted, and cells were washed with 60 μL of drug buffer (1×HBSS, 20 mM HEPES, pH 7.4), then 60 μL of drug buffer was added per well. Cells were pre-incubated at in a humidified atmosphere at 37° C. before receiving drug stimulation. Drug stimulation utilized 30 μL addition of drug (3X) diluted in McCorvy buffer (1×HBSS, 20 mM HEPES, pH 7.4, supplemented with 0.3% BSA fatty acid free, 0.03% ascorbic acid) and plates were incubated at for 1 hour at 37° C. Substrate addition occurred 15 minutes before reading and utilized 10 μL of the Rluc substrate coelenterazine 400a for Gq dissociation BRET^2 (Prolume/Nanolight, 5 μM final concentration). Plates were read for luminescence at 400 nm and fluorescent GFP2 emission at 510 nm at 1 second per well using a Mithras LB940 multimode microplate reader (e.g. one provided by Berthold). The BRET ratios of fluorescence/luminescence were calculated per well and were plotted as a function of drug concentration using Graphpad Prism 8 (Graphpad Software Inc., San Diego, CA). Data were normalized to % 5-HT stimulation and analyzed using nonlinear regression “log(agonist) vs. response” to yield Emax and EC50 parameter estimates. Results are shown in Table 5, where A=<10; B=10 to <100; C=100 to 1000 and D=>1000; +++=>80%; ++=50 to 80%; and +=<50%; NA=No Activity. […] Hallucinogenic (“Hall”) or non-hallucinogenic (“N-Hall”) plastogenic effect is predicted for compounds based on the level 5-HT2A agonist efficacy.
Background: BRET reads energy transfer from a luciferase to a nearby fluorophore.

Assay [3] addresses T2, 5-HT2A (Homo sapiens, UniProt P28223).
T2 construct: expressed in transfected cells; host or cells: HEK293T
The assay is described as above. Particulars: for pEC50: HEK293T cells; for Hall or N-Hall?: hallucinogenic or non-hallucinogenic effect predicted from level of 5-HT2A agonist efficacy.
Text: as §1

The target of assay [4] is T3, 5-HT2B (Homo sapiens, UniProt P41595).
T3 construct: expressed in transfected cells; host or cells: HEK293T
T3 sequence (P41595 whole entry): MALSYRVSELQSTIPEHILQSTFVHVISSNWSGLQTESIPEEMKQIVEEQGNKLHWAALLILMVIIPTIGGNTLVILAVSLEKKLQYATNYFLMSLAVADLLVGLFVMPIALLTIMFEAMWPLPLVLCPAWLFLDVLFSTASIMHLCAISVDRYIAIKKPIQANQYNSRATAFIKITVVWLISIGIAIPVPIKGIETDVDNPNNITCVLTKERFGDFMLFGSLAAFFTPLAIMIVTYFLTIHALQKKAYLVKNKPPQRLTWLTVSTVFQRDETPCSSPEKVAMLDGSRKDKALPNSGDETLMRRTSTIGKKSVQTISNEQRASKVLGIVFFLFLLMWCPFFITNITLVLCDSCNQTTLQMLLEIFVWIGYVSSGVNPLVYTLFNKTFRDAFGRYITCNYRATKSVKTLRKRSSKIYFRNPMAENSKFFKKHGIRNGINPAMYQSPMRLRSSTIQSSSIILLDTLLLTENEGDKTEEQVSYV
The description is as above. Particulars: HEK293T cells.
Text: as §1

By pEC50 is commonly meant the EC50 on a negative log10 scale, so that one unit is a factor of ten. A lower pEC50 goes with a high EC50. Broadly, the Emax is the size of the effect at its maximum, as opposed to the concentration needed.

Structures are written as SMILES. pEC50: −log10 of the molar value. Some results are limits rather than exact numbers.

T2 sequence (P28223 whole entry): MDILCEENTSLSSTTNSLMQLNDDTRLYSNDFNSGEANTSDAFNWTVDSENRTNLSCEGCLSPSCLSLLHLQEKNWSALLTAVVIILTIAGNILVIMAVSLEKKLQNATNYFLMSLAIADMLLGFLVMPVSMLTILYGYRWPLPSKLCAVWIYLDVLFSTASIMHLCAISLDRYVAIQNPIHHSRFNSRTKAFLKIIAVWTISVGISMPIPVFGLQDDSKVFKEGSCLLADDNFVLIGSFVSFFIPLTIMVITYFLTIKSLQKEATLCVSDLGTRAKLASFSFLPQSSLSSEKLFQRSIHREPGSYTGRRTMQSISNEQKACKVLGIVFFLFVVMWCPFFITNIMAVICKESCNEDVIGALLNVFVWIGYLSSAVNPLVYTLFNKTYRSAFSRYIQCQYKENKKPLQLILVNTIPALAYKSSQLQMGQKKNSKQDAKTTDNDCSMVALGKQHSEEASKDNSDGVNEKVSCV

`CNCC1CC1c1cc(F)ccc1SC` (stereo not drawn): the “5-HT2C Gq signaling bias?” value in assay [1] was “Yes”. The pEC50 in assay [2] was over 8.00; in assay [3] (Gq dissociation BRET), 6.00 to 7.00. Besides, the “Hall or N-Hall?” value in assay [3] is “N-Hall”.

In the case of `CSc1ccc(F)cc1C1CC1CN(C)C` (stereo not drawn), the “5-HT2C Gq signaling bias?” value in assay [1] was “Yes”. Besides, the pEC50 in assay [2] is 7.00 to 8.00; in assay [3] (Gq dissociation BRET), under 6.00. Further, the Emax in assay [2] (read-out: 5-HT2C Emax) was under 50%; in assay [3] (Gq dissociation BRET, normalized to % 5-HT stimulation) it was under 50%. Moreover, in assay [3], the “Hall or N-Hall?” value was “N-Hall”.

Regarding `CNC[C@H]1C[C@@H]1c1cc(F)ccc1OC`, the “5-HT2C Gq signaling bias?” value in assay [1] is “Yes”. Moreover, the pEC50 in assay [2] is 7.00 to 8.00; in assay [3] (Gq dissociation BRET) it was 6.00 to 7.00; in assay [4], 7.00 to 8.00. The “Hall or N-Hall?” value in assay [3] is “N-Hall”.

These data come from patent US12564560B1, “Selective serotonin receptor modulators and methods of making and using the same” (Park City Bio, LLC, priority 2024, dated 2026).
